# In patent publication US20090317293A1, “METHOD AND DEVICE FOR ELIMINATING MICROBES WITHIN INDUSTRIAL PIPELINES” (BioCorrosion Solutions Inc., priority 2008, published 2009):
# Legend:
# [1] = test system: D. vulgaris (ATCC#29579) biofilms; assay: Photodynamic disinfection of peg biofilms, 670 nm laser, anaerobic (Example X); type: cell-based, Desulfovibrio vulgaris; settings: control: methylene blue formulation alone, no laser light
# [2] = test system: D. desulfuricans (ATCC#14563) biofilms; assay: as above; type: cell-based, Desulfovibrio desulfuricans; settings: control: methylene blue formulation alone, no laser light
# [3] = test system: D. desulfuricans biofilms; assay: Photodynamic disinfection of well-plate biofilms, broadband light, anaerobic (Example XI); type: cell-based, Desulfovibrio desulfuricans; settings: 0.1%, then 60 second broadband illumination
# Experimental: (§1) In this study, biofilms of sulfate reducing bacteria were treated with photodynamic disinfection as in Example X above. In these experiments, however, illumination of the biofilms was performed using a broadband (wide wavelength) light source instead of a laser. […] For the broadband light photodynamic disinfection exposures, biofilms of D. vulgaris and D. sulfuricans were grown on the inner surface of flat-bottomed 96-well plates. In brief, 50 μl of liquid inoculum in log growth phase was added to each well, and plates were then incubated (37° C.) on an […] shaker at 125 rpm for 48 hours in order to allow biofilm growth. […] After this growth period, plates were removed from the shaker into an anaerobic cabinet, where all photodynamic disinfection treatments were performed. […] Raw surviving colony counts for each experimental condition were averaged and back-calculated given dilution factor to give data in CFU/ml. The data was presented as CFU/ml of surviving organisms after treatment, and kill rate was calculated as this value in experimental samples vs. control (no light, no photosensitizer) and expressed as both a log and percentage reduction in viability. […]
# D. vulgaris biofilms = assay: as above; type: cell-based, Desulfovibrio vulgaris; settings: 0.1% w/v, 30 seconds, then 60 seconds broadband illumination (150 watt haloid lamp)
# Experimental: as §1
# [4] = test system: Desulfovibrio vulgaris (ATCC#29579); assay: In vitro photodynamic disinfection of planktonic bacteria, aerobic and anaerobic (Example IX); type: cell-based
# Experimental: An in vitro photodynamic disinfection model was used to evaluate antibacterial efficacy against a strain of bacteria commonly found in biofilms growing on the inner surface of industrial oil and gas pipelines. […] This organism is a facultative anaerobe, and typically grows in nature in environments that contain little or no oxygen. Thus, prior to the experiments the bacteria was grown on pre-reduced solid media (brucella blood agar enriched with haemin and vitamin K) at 37° C. under anaerobic conditions. The exposures to photodynamic disinfection were run in both anaerobic and aerobic conditions in order to determine the importance of local oxygen during the photoreaction. […] In addition, several experimental conditions were run in the presence of L-tryptophan, which is a known scavenger of singlet oxygen and other oxygen derived free radicals. The addition of L-tryptophan was designed to test whether the antimicrobial killing effect of photodynamic disinfection was in fact dependent on the generation of reactive forms of oxygen. […] In addition, controls consisting of exposure to either photosensitizer or illumination alone were run to ensure that neither of these variables contributed to bacterial killing on their own. For these photodynamic disinfection experiments, log phase planktonic bacterial inoculum was prepared to a concentration of 10^7 colony-forming units per milliliter (CFU/ml) in a buffered saline solution. […] After illumination, samples were serially diluted and plated on tryptic soy agar for 48 hours at 37° C. Raw surviving colony counts for each experimental condition were averaged and back-calculated given dilution factor to give data in CFU/ml. The data was presented as CFU/ml of surviving organisms after treatment, and kill rate was calculated as this value in experimental samples vs. control (no light, no photosensitizer) and expressed as both a log and percentage reduction in viability. The entire experimental protocol was performed in the dark, and all samples were exposed and plated one at a time to limit ambient light exposure and to maintain the exposure time of bacteria to test solution uniform across all replicates. All experimental and control conditions were run in triplicate for each individual experiment, and experiments were performed on three separate occasions to verify reproducibility.
# [5] = test system: D. vulgaris (ATCC#29579) biofilms; assay: Treatment of peg biofilms with chemical disinfectant, anaerobic (Example X); type: cell-based, Desulfovibrio vulgaris
# Experimental: (§2) Homogenous biofilms of the sulfate reducing organisms D. vulgaris (ATCC#29579) and D. desulfuricans (ATCC#14563) were grown on hard plastic pegs using a previously published protocol and system (Innovotech, Calgary, Canada). Briefly, bacterial suspensions of D. vulgaris and D. desulfuricans consisting of 10^8 CFU/ml were prepared in modified Barrs medium for sulfate reducers (ATCC), then diluted 1:40. 200 μl of this inoculum was added to each well of a 96-well plate. 96-peg lids were then placed into the wells and the assembly was incubated at 37° C. on an Excella E2 gyrorotary shaker (Fisher Scientific) at 125 rpm for 24 hours. For both biofilm protocols, all inoculum and plates were prepared and incubated anaerobically. During the incubation period, the visible formation of an insoluble black residue in each well indicated bacterial metabolism, and after incubation a visible biofilm was evident on each pegs.
# (§3) For treatment of biofilms with benzalkonium chloride (BAC), biofilms grown on pegs as described above were used. 96-peg lids were removed from the bacterial inoculum after 24 hours of incubation, and rinsed twice to remove any free-floating organisms by placing the peg lid in 96-well plates containing 300 μl of sterile water. Pegs were then placed in aqueous solutions containing either 0% (water only control), 0.01%, 0.1%, or 1% BAC for 30 seconds. After this exposure pegs were immediately placed in recovery media and processed/plated as described above for enumeration of surviving organisms. All BAC exposure conditions were run in triplicate in anaerobic conditions for each organism.
# [6] = test system: D. desulfuricans (ATCC#14563) biofilms; assay: as above; type: cell-based, Desulfovibrio desulfuricans
# Experimental: as §2, §3
# [7] = aerobic, 0.01% w/v aqueous methylene blue, 670 nm diode laser 20.6 J/cm2 (60 seconds), planktonic
# [8] = anaerobic, 0.01% w/v aqueous methylene blue, 670 nm laser 20.6 J/cm2, planktonic
# [9] = 30 second exposure to 0.01% aqueous solution
# [10] = 30 second exposure to 0.1% aqueous solution
# [11] = 30 second exposure to 1% aqueous solution
Compound,reduction in biofilm viability [1],reduction in biofilm viability [2],reduction in viability [3],decrease in viability compared to non-treated control (D. vulgaris biofilms) [log10],"inhibition at 0.1 % strength (D. vulgaris biofilms; Nitratidesulfovibrio vulgaris, read-out: decrease in viability compared to non-treated control) [%]","killing [4, 7] [%]","log10 reduction in viability vs. non-treated controls [4, 7] [log10]","log10 reduction in viability vs. non-treated controls ([4]; aerobic, 0.01% w/v methylene blue with 20 mM L-tryptophan, 670 nm laser 20.6 J/cm2, planktonic) [log10]","killing [4, 8] [%]","log10 reduction vs. non-treated control [4, 8] [log10]","log10 reduction from non-treated control ([4]; anaerobic, 0.01% w/v methylene blue with 20 mM L-tryptophan, 670 nm laser 20.6 J/cm2, planktonic) [log10]","antibacterial action ([4]; control: photosensitizer composition alone, no illumination)","reduction in viability vs. non-treated control [5, 9] [log10]","reduction in viability vs. non-treated control [5, 10] [log10]","reduction in viability vs. non-treated control [5, 11] [log10]","reduction in viability vs. non-treated control [6, 9] [log10]","reduction in viability vs. non-treated control [6, 10] [log10]","reduction in viability vs. non-treated control [6, 11] [log10]"
CN(C)c1ccc2nc3ccc(=[N+](C)C)cc-3sc2c1 [methylene blue],Neither the methylene blue formulation nor the laser light alone led to any significant reduction,Neither the methylene blue formulation nor the laser light alone led to any significant reduction,did not result in a significant reduction in viability,1.5,~95,> 99.99,4.4±2.3,1.7±0.6,> 99.9,3.5±0.8,2.5±2.1,No significant antibacterial action,–,–,–,–,–,–
benzalkonium chloride [BAC],–,–,–,–,–,–,–,–,–,–,–,–,0.5,1.4,1.5,0.6,2.7,1.9
